Assay results reported in PubChem BioAssay AID1845217 (Molecular Pharmacology Branch, DTP, NCI, 2023).
Where “and” joins values, the source holds several entries; their conditions need not be identical. Equal entries are not always repeated.

Tested on: VA-ES-BJ tumor spheroid viability
Assay: Anticancer human tumor VA-ES-BJ cell line growth inhibition;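 note: spheroids exposed to compounds for seven days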;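 for viability, T/C: percent of DMSO vehicle control viability so 100% = untreated growth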
Conditions: spheroids with HUVEC and MSC; for viability, T/C: stronger effect = lower value; active = viability on the fitted dose curve at most 10% of control; inactive = the rest
Summary of the method: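 Complex tumor spheroids combined malignant cells with endothelial cells and mesenchymal stem cells. DNA-damaging drugs and DNA repair inhibitors were tested alone and in combination, at half-log dilutions down from clinical Cmax (top 10 microM if Cmax unknown), 0.25% DMSO final.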

[1] = curve of first compound, second compound 0.003 µM
[2] = second compound 0.003 µM, first compound 0.00949 µM
[3] = second compound 0.003 µM, first compound 0.03 µM
[4] = second compound 0.003 µM, first compound 0.0949 µM
[5] = second compound 0.003 µM, first compound 0.3 µM
[6] = second compound 0.003 µM, first compound 0.949 µM
[7] = second compound 0.003 µM, first compound 3 µM

Cc1sc2c(c1C)C(c1ccc(Cl)cc1)=NC(CC(=O)Nc1ccc(O)cc1)c1nnc(C)n1-2 (centres undefined) + COc1cc2c(cc1O)CCNC21CSC2c3c(OC(C)=O)c(C)c4c(c3C(COC1=O)N1C(O)C3Cc5cc(C)c(OC)c(O)c5C(C21)N3C)OCO4
< 0.00949 µM: IC50 (curve of first compound, second compound 0.0003 µM) | IC50 (curve of first compound, second compound 0.000949 µM) | IC50 [1]
active: viability, T/C (second compound 0.0003 µM, first compound 0.949 µM) 6.9% | viability, T/C (second compound 0.0003 µM, first compound 3 µM) 2.06% | viability, T/C (second compound 0.000949 µM, first compound 0.00949 µM) 8.09% | viability, T/C (second compound 0.000949 µM, first compound 0.03 µM) 2.88% | viability, T/C (second compound 0.000949 µM, first compound 0.0949 µM) 5.43% | viability, T/C (second compound 0.000949 µM, first compound 0.3 µM) 1.01% | viability, T/C (second compound 0.000949 µM, first compound 0.949 µM) 0.08% | viability, T/C (second compound 0.000949 µM, first compound 3 µM) 0.14% | viability, T/C [2] 1.18% | viability, T/C [3] 1.31% | viability, T/C [4] 1.36% | viability, T/C [5] 1.87% | viability, T/C [6] 2.19% | viability, T/C [7] 3.69%
0.0586 µM: IC50 (curve of first compound, second compound 94.9 pM)
0.078 µM: IC50 (curve of first compound, second compound 30 pM)
inactive: viability, T/C (second compound 30 pM, first compound 0.00949 µM) 83.6% | viability, T/C (second compound 30 pM, first compound 0.03 µM) 65.8% | viability, T/C (second compound 30 pM, first compound 0.0949 µM) 48.9% | viability, T/C (second compound 30 pM, first compound 0.3 µM) 27.4% | viability, T/C (second compound 30 pM, first compound 0.949 µM) 24% | viability, T/C (second compound 30 pM, first compound 3 µM) 17.5% | viability, T/C (second compound 94.9 pM, first compound 0.00949 µM) 79.4% | viability, T/C (second compound 94.9 pM, first compound 0.03 µM) 60.9% | viability, T/C (second compound 94.9 pM, first compound 0.0949 µM) 42.3% | viability, T/C (second compound 94.9 pM, first compound 0.3 µM) 27.3% | viability, T/C (second compound 94.9 pM, first compound 0.949 µM) 21.3% | viability, T/C (second compound 94.9 pM, first compound 3 µM) 10.5% | viability, T/C (second compound 0.0003 µM, first compound 0.00949 µM) 38.7% | viability, T/C (second compound 0.0003 µM, first compound 0.03 µM) 32.4% | viability, T/C (second compound 0.0003 µM, first compound 0.0949 µM) 23.7% | viability, T/C (second compound 0.0003 µM, first compound 0.3 µM) 13.7%

CNCc1ccc(-c2cc(-c3nc(-c4ccc(S(=O)(=O)C(C)C)cc4)cnc3N)on2)cc1
9.28% and 11.6% and 7.52%: viability, T/C (compound 0.949 µM)
0.289 µM and 0.399 µM and 0.235 µM: IC50 (curve of compound)
inactive: viability, T/C (compound 0.00949 µM) 77.7% and 86.1% and 87.9% | viability, T/C (compound 0.03 µM) 77.8% and 85% and 86.1% | viability, T/C (compound 0.0949 µM) 76% and 74.3% and 83% | viability, T/C (compound 0.3 µM) 48.9% and 63.3% and 41%
active: viability, T/C (compound 3 µM) 2.21% and 6.18% and 1.41%

CC[C@@]1(O)C(=O)OCc2c1cc1n(c2=O)Cc2cc3c(CN(C)C)c(O)ccc3nc2-1
active: viability, T/C (compound 0.3 µM) 5.65% [middle of 10 runs]
28.5 nM [middle of 5 runs]: IC50 (compound alone, run of 12/12/2019)
inactive: viability, T/C (compound 0.003 µM) 94% [middle of 10 runs]
21.8 nM [middle of 5 runs]: IC50 (compound alone, run of 12/02/2019)
7.65% [middle of 10 runs]: viability, T/C (compound 0.0949 µM)

Cn1ncnc1[C@H]1c2n[nH]c(=O)c3cc(F)cc(c23)N[C@@H]1c1ccc(F)cc1 + CC[C@@]1(O)C(=O)OCc2c1cc1n(c2=O)Cc2cc3c(CN(C)C)c(O)ccc3nc2-1
inactive: viability, T/C [2] 70.4% | viability, T/C [3] 54.7% | viability, T/C [4] 57.9% | viability, T/C [5] 44.7% | viability, T/C [6] 22.9% | viability, T/C (second compound 0.00949 µM, first compound 0.00949 µM) 43.9% | viability, T/C (second compound 0.00949 µM, first compound 0.03 µM) 33.5% | viability, T/C (second compound 0.00949 µM, first compound 0.0949 µM) 28.4% | viability, T/C (second compound 0.00949 µM, first compound 0.3 µM) 21% | viability, T/C (second compound 0.00949 µM, first compound 0.949 µM) 10.6% | viability, T/C (second compound 0.03 µM, first compound 0.00949 µM) 9.86%
active: viability, T/C [7] 5.42% | viability, T/C (second compound 0.00949 µM, first compound 3 µM) 6.84% | viability, T/C (second compound 0.03 µM, first compound 0.03 µM) 8.29% | viability, T/C (second compound 0.03 µM, first compound 0.0949 µM) 7.12% | viability, T/C (second compound 0.03 µM, first compound 0.3 µM) 6.39% | viability, T/C (second compound 0.03 µM, first compound 0.949 µM) 4.2% | viability, T/C (second compound 0.03 µM, first compound 3 µM) 3.72% | viability, T/C (second compound 0.0949 µM, first compound 0.00949 µM) 7.58% | viability, T/C (second compound 0.0949 µM, first compound 0.03 µM) 7.39% | viability, T/C (second compound 0.0949 µM, first compound 0.0949 µM) 8.32% | viability, T/C (second compound 0.0949 µM, first compound 0.3 µM) 8.9% | viability, T/C (second compound 0.0949 µM, first compound 0.949 µM) 4.82% | viability, T/C (second compound 0.0949 µM, first compound 3 µM) 3.16% | viability, T/C (second compound 0.3 µM, first compound 0.00949 µM) 9.11% | viability, T/C (second compound 0.3 µM, first compound 0.03 µM) 9.07% | viability, T/C (second compound 0.3 µM, first compound 0.0949 µM) 8.75% | viability, T/C (second compound 0.3 µM, first compound 0.3 µM) 9.02% | viability, T/C (second compound 0.3 µM, first compound 0.949 µM) 8.91% | viability, T/C (second compound 0.3 µM, first compound 3 µM) 7.66%
< 0.00949 µM: IC50 (curve of first compound, second compound 0.00949 µM) | IC50 (curve of first compound, second compound 0.03 µM) | IC50 (curve of first compound, second compound 0.0949 µM) | IC50 (curve of first compound, second compound 0.3 µM)
0.15 µM: IC50 [1]

O=C(c1cc(Cc2n[nH]c(=O)c3ccccc23)ccc1F)N1CCN(C(=O)C2CC2)CC1
> 30 µM and 25.8 µM: IC50 (curve of compound)
inactive: viability, T/C (compound 0.0949 µM) 113% and 96.3% and 94.1% | viability, T/C (compound 0.3 µM) 98.4% and 84.9% and 93.2% | viability, T/C (compound 0.949 µM) 101% and 89.1% and 92.5% | viability, T/C (compound 3 µM) 98.7% and 88% and 87% | viability, T/C (compound 9.49 µM) 74.6% and 71.3% and 67.4% | viability, T/C (compound 30 µM) 67.4% and 52.5% and 47.3%
